Patent US20220288026A1, “METHODS OF TREATING KIDNEY DISEASES” (priority 2019, published 2022)
Entries after “also recorded” stand apart in the source; their conditions may differ. Read-outs that look alike come from different tables or passages of the source.

Legend:
[1] = test system: primary human renal mesangial cells (HRMCs); assay: Proliferation (BrdU) of HRMCs stimulated with IgA-containing immune complexes; format: cell-based
Text: Primary human mesangial cells in a culture were stimulated with pathogenic galactose deficient (Gd)-IgA containing immune complexes isolated from human IgA nephropathy patients.
Specifically, pathogenic IgA-containing immune complexes were isolated from serum from either IgA nephropathy patients or age, gender and ethnicity-matched healthy individuals. Frozen serum was purchased from BioIVT and IgA-containing immune complexes were purified using jacalin affinity chromatography. […] Purified IgA-containing immune complexes were concentrated using a 100K Amicon filtration unit and the amount of total IgA and galactose-deficient IgA (Gd-IgA) in the immune complexes was measured by ELISA (ThermoFisher and IBL America, respectively). […] See, e.g., Novak et. al., Kidney International, 67, pp. 504-516; 2005; Novak et. al., Nephrol. Dial. Transplant, 26, pp. 3451-3457; 2011; Liang et. al., Cell Physiol. Biochem., 36, pp. 1793-1808; 2015; Nguyen et. al., Clin. Kidney J., 12 (2), pp, 232-238; 2019.

[2] = test system: g-ddY mice; assay: UACR (albuminuria) in g-ddY mouse model of IgA nephropathy; format: in vivo
Text: The grouped ddY (g-ddY) mouse is a spontaneous model of early-onset IgA nephropathy characterized by IgA immune complex deposition in the mesangium of the kidney, leading to significant proteinuria, glomerular hypercellularity, mesangioproliferative glomerular lesions, glomerular sclerosis and reduced kidney function, all hallmarks of human IgA nephropathy (J Am Soc Nephrol 23: 1364-1374, 2012). Consistent with human IgA nephropathy, the mesangial IgA deposits in the g-ddY mouse are also accompanied by deposition of IgG and complement C3.

[3] = test system: kidney tissue of g-ddY mice; assay: Ingenuity Pathway Analysis (IPA) canonical pathways, g-ddY kidney RNA-seq; format: in vivo, mouse; settings: 30 mg/kg/day
Experimental: (§1) RNA isolation and sequencing libraries were generated using standard protocols. Sequencing was performed using an Illumina NextSeq500 using manufacturer's instructions with a read length of 75 bp and a read depth of 30 million. Raw data was assembled to FASTQ files. Following QC analysis, high quality sequencing reads (e.g., reads with a Phred quality score >36) were aligned to the mouse reference genome (GRCm38-mm10) using the default parameters of the align algorithm and transcript count tables of each library was generated using the default parameters of the featureCounts algorithm of the RSubread package (Liao Y, Smyth G K, Shi W, 2019). High quality sequencing reads mapped to 27,129 genes. Following additional QC of low count filtering (i.e. transcripts <10 counts across all samples), 16,207 genes were identified and used for further analysis. The remaining sequencing read counts of the included 16,207 genes were normalized to library size, log-transformed, and were quantified as counts per million (CPM). Select RNA-seq counts were validated using qPCR.

[4] = test system: kidney tissue of g-ddY mice; assay: Gene Set Enrichment Analysis (GSEA) hallmark gene sets, g-ddY kidney RNA-seq; format: in vivo, mouse
Experimental: as §1

[5] = test system: kidney tissue of g-ddY mice; assay: IPA upstream regulator analysis, g-ddY kidney RNA-seq; format: in vivo, mouse; settings: 30 mg/kg/day
[6] = test system: kidney tissue of g-ddY mice
[7] = test system: patients with diabetic kidney disease (DKD); settings: cited from earlier work
[8] = 10 mg/kg/day vs untreated control
[9] = 20 mg/kg/day vs untreated control
[10] = 30 mg/kg/day vs untreated control

## CCCCN(CCCC)C(=O)CN1C[C@H](c2ccc3c(c2)OCO3)[C@@H](C(=O)O)[C@@H]1c1ccc(OC)cc1 [atrasentan, (2R,3R,4S)-4-(1,3-benzodioxol-5-yl)-1-[2-(dibutylamino)-2-oxoethyl]-2-(4-methoxyphenyl)pyrrolidine-3-carboxylic acid]
[1]; IgA containing serum fractions from healthy controls
  basal cell proliferation of HRMCs: no effect on basal cell proliferation
[1]; immune complexes from three patients with IgA nephropathy
  hyperproliferation of HRMCs induced by IgA containing immune complexes: reduces the proliferation; also recorded: significantly attenuated the hyperproliferation
[2]; 10 mg/kg/day
  UACR reduction compared to control group (un-paired t-test): not significant
[2]; 10 mg/kg/day group
  mice with reduced albuminuria/proteinuria: ⅔
[2]; 10 mg/kg/day, approximately 5 days
  albuminuria compared to baseline (paired t-test): not significantly changed from baseline
[2]; 20 mg/kg/day, P=0.0498
  UACR reduction compared to control group (un-paired t-test): statistically significant compared to the control group
[2]; 20 mg/kg/day, approximately 5 days, P=0.0593
  albuminuria compared to baseline (paired t-test): reduced from baseline to a similar extent
[2]; 30 mg/kg/day, P=0.029
  UACR reduction compared to control group (un-paired t-test): statistically significant compared to the control group
[2]; 30 mg/kg/day, approximately 5 days, P=0.0002
  albuminuria compared to baseline (paired t-test): reduced albuminuria from baseline
[2]; 20 and 30 mg/kg/day, approximately 5 days
  albuminuria reduction from baseline: > 60%
[3]
  IPA: effect on signaling pathways: reduced NF-κB signaling, IL-6 pathway signaling (e.g., STAT3), and PDGF signaling
  NF-κB signaling: reduced NF-κB signaling
  PDGF signaling: reduced PDGF signaling
[4]; 10 mg/kg/day vs. control
  NES HALLMARK_REACTIVE_OXYGEN_SPECIES_PATHWAY: 1.59
[4]; 20 mg/kg/day vs. control
  NES HALLMARK_REACTIVE_OXYGEN_SPECIES_PATHWAY: 1.61
[4]; 30 mg/kg/day
  IL-6 signaling: reduced IL-6 signaling
  cell proliferation associated signaling (mitotic spindle and G2M checkpoint): reduced cell proliferation associated signaling
  inflammatory response signaling: reduced inflammatory response signaling
[4]; 30 mg/kg/day vs. control
  NES HALLMARK_REACTIVE_OXYGEN_SPECIES_PATHWAY: 1.98
[4]; 10, 20, and 30 mg/kg/day
  GSEA: TNFα signaling via NF-κB, epithelial mesenchymal transition, inflammatory response, IL6-JAK-STAT3 signaling, mitotic spindle, G2M checkpoint: concordant negative enrichment
[5]
  Predicted Activation State 26s Proteasome: Inhibited
  Predicted Activation State ADGRF5: Activated
  Predicted Activation State AGT: Inhibited
  Predicted Activation State BMP2: Inhibited
  Predicted Activation State CCL5: Inhibited
  Predicted Activation State CCN5: Activated
  Predicted Activation State CCR2: Inhibited
  Predicted Activation State CD40LG: Inhibited
  Predicted Activation State CG: Inhibited
  Predicted Activation State CHRM3: Inhibited
  Predicted Activation State CSF2: Inhibited
  Predicted Activation State CSF3: Inhibited
  Predicted Activation State CXCL12: Inhibited
  Predicted Activation State DKK1: Activated
  Predicted Activation State EDN1: Inhibited
  Predicted Activation State EDNRA: Inhibited
  Predicted Activation State EGF: Inhibited
  Predicted Activation State F2R: Inhibited
  Predicted Activation State F3: Inhibited
  Predicted Activation State FAS: Activated
  Predicted Activation State FCGR1A: Inhibited
  Predicted Activation State FGF2: Inhibited
  Predicted Activation State FGF23: Inhibited
  Predicted Activation State GDF2: Inhibited
  Predicted Activation State GPER1: Inhibited
  Predicted Activation State HGF: Inhibited
  Predicted Activation State HTR7: Inhibited
  Predicted Activation State IFNA2: Inhibited
  Predicted Activation State IFNAR1: Inhibited
  Predicted Activation State IFNG: Inhibited
  Predicted Activation State IGF1: Inhibited
  Predicted Activation State IGF1R: Activated
  Predicted Activation State IL1A: Inhibited
  Predicted Activation State IL1B: Inhibited
  Predicted Activation State IL2: Inhibited
  Predicted Activation State IL3: Inhibited
  Predicted Activation State IL6: Inhibited
  Predicted Activation State IL6R: Inhibited
  Predicted Activation State IL10: Inhibited
  Predicted Activation State IL21: Inhibited
  Predicted Activation State IL33: Inhibited
  Predicted Activation State ILR4: Inhibited
  Predicted Activation State Ifn gamma: Inhibited
  Predicted Activation State Ige: Inhibited
  Predicted Activation State LDL: Inhibited
  Predicted Activation State LGR5: Activated
  Predicted Activation State Laminin (complex): Activated
  Predicted Activation State NFkB (complex): Inhibited
  Predicted Activation State NRG1: Inhibited
  Predicted Activation State OSM: Inhibited
  Predicted Activation State PDGF BB: Inhibited
  Predicted Activation State PDGFB: Inhibited
  Predicted Activation State PF4: Inhibited
  Predicted Activation State PI3K (complex): Inhibited
  Predicted Activation State PLA2R1: Activated
  Predicted Activation State PRL: Inhibited
  Predicted Activation State PROKR1: Activated
  Predicted Activation State PTGER4: Activated
  Predicted Activation State Pdgf (complex): Inhibited
  Predicted Activation State SMO: Activated
  Predicted Activation State TCR: Inhibited
  Predicted Activation State TGFB1: Inhibited
  Predicted Activation State TGFB2: Inhibited
  Predicted Activation State TGFB3: Inhibited
  Predicted Activation State TLR3: Inhibited
  Predicted Activation State TLR9: Inhibited
  Predicted Activation State TNF: Inhibited
  Predicted Activation State TNFRSF1A: Inhibited
  Predicted Activation State TNFSF11: Inhibited
  Predicted Activation State TNFSF12: Inhibited
  Predicted Activation State TREM1: Inhibited
  Predicted Activation State TSLP: Inhibited
  Predicted Activation State TYROBP: Inhibited
  Predicted Activation State VEGFA: Inhibited
  Predicted Activation State VEGFB: Activated
  Predicted Activation State WNT3A: Inhibited
[6]; [8]
  ET1 gene signature genes downregulated: Grk5, Mllt3, Klf2, Pparg, Hgf, Edn1, Fos, Ptgs2, and IL-1b were downregulated
  ET1 gene signature genes upregulated: Ccnd1, Ppara, Agt, Map2k2 and Hoxa9 were upregulated
[6]; [9]
  ET1 gene signature genes downregulated: Nfatc1, Grk5, Klf2, Cav1, Pparg, Itga5, Myc, Ednra, Sell, Hgf, Mmp2, Edn1, Syk, Fos, and IL-1b were downregulated
  ET1 gene signature genes upregulated: Ccdn1, Cat, Ppara, Map2k2, Hoxa9, Agt, and Egfr were upregulated
[6]; [10]
  ET1 gene signature genes downregulated: downregulated genes Ednrb, Myc, Mllt3, Hdac7, Ednra, Itga5, Grk5, Pparg, Klf2, Hgf, Mmp2, Sell, Sphk1, Fos, Syk, Edn1, and IL-1b
  ET1 gene signature genes upregulated: upregulated genes Ccnd1, Agt, Cat, Map2k2, Hoxa9, and Ppara
[6]; 10, 20, and 30 mg/kg/day
  ET1 (Edn1) gene expression: downregulated across all three doses
[7]
  risk of renal events (doubling of serum creatinine or end-stage kidney disease): significantly reducing the risk of renal events
